Experimental data taken from patent US20230039086A1, “BMS-986165 CRYSTAL FORM, PREPARATION METHOD THEREFOR AND USE THEREOF” (CRYSTAL PHARMACEUTICAL (SUZHOU) CO., LTD., priority 2019, published 2023).
“Also recorded” adds a separate entry of the source.

Experiments:
[1] = systemic lupus erythematosus and Crohn's disease; cited from earlier work
[2] = phase III clinical study results announced in November 2020, moderate to severe plaque psoriasis; cited from earlier work
[3] = Compressibility (ENERPAC manual tablet press, tablet hardness and tensile strength); type: physicochemical; details: 80 mg, φ6 mm round tooling, 10 KN; for Diameter / Hardness / Thickness: after 24 h at room temperature; for Tensile strength: calculated T=2H/πDL*9.8
Experimental: ENERPAC manual tablet press was used for compression. 80 mg of Form CSI and Form A were weighed and added into the dies of a φ6 mm round tooling, compressed at 10 KN manually, then stored at room temperature for 24 h until complete elastic recovery. Hardness (H) was tested with an intelligent tablet hardness tester. Diameter (D) and thickness (L) were tested with caliper. Tensile strength of the powder was calculated with the following formula: T=2H/πDL*9.8. Under a certain force, the greater the tensile strength, the better the compressibility.
ENERPAC manual tablet press was used for compression. 80 mg of Form CSII and Form A were weighed and added into the dies of a φ6 mm round tooling, compressed at 10 KN manually, then stored at room temperature for 24 h until complete elastic recovery. Hardness (H) was tested with an intelligent tablet hardness tester. Diameter (D) and thickness (L) were tested with caliper. Tensile strength of the powder was calculated with the following formula: T=2H/πDL*9.8. Under a certain force, the greater the tensile strength, the better the compressibility.

[4] = Adhesiveness (material sticking to the punch during compression); type: physicochemical; details: for Adhesiveness (in words): compared with Form A where a comparison is stated
Experimental: Approximately 30 mg of Form CSII and Form A were weighed and then added into the dies of φ8 mm round tooling, compressed at 10 kN and held for 30 s. The material sticking to the punch was recorded. The compression was repeated twice and the cumulative amount, maximum amount and average amount of material sticking to the punch during the compression were recorded.

[5] = Physical stability on manual grinding, XRPD before and after; type: physicochemical; details: ground manually for 5 minutes in a mortar
Experimental: Form CSII was grounded manually for 5 minutes in a mortar. Crystalline form before and after grinding were checked by XRPD.

[6] = Physical stability under pressure (tableting), XRPD before and after; type: physicochemical
Excerpt: A certain amount of Form CSI was compressed into tablets under 3 kN, 7 kN and 14 kN with suitable tableting die. Crystalline forms before and after tableting were checked by XRPD.
A certain amount of Form CSII was compressed into tablets under 5 kN, 10 kN and 20 kN with suitable tableting die. Crystalline forms before and after tableting were checked by XRPD.

[7] = Storage stability at 25 °C/60% RH and 40 °C/75% RH, crystalline form by XRPD and chemical purity by HPLC; type: physicochemical; details: for Crystalline form after storage: XRPD; for Purity: HPLC
Experimental: Approximately 5 mg of Form CSI in the present disclosure was stored under different conditions of 25° C./60% RH and 40° C./75% RH. Crystalline form and chemical purity were checked by XRPD and HPLC, respectively.
Approximately 5 mg of Form CSII in the present disclosure was stored under different conditions of 25° C./60% RH and 40° C./75% RH. Crystalline form and chemical purity were checked by XRPD and HPLC, respectively.

[8] = Thermodynamic stability: suspension of Form A plus Form CSI stirred at 5 °C, solid checked by XRPD; type: physicochemical
Experimental: A certain amount of Form A was weighed into glass vail and 0.3 mL of solvent mixtures of water and acetonitrile, water and methanol, or water and acetone according to table 8 were added to form suspensions. Approximately 6 mg of Form CSI of the present disclosure was added in the suspension. After mixing at 5° C. for 5 minutes, a portion of the solid was taken out and tested by XRPD. After the suspension was stirred at 5° C. for 6 days, a portion of the solid was taken out and tested by XRPD again.

[9] = about 30 mg, φ8 mm round tooling, 10 kN held for 30 s
[10] = 25 °C/60% RH, open and sealed, 6 months
[11] = 25 °C/60% RH, sealed (closed), 6 months
[12] = 40 °C/75% RH, open and sealed, 6 months
[13] = 40 °C/75% RH, sealed (closed), 6 months

Compound	Compressibility / behaviour during tablet pressing (in words) [3]	Average amount of material sticking to the punch [4, 9]	Maximum amount of material sticking to the punch [4, 9]	Adhesiveness (in words) [4]	Diameter [3]	Hardness [3]	Thickness [3]	Tensile strength [3]	Time for which the crystalline form is stable (does not change) ([7]; 25 °C/60% RH, open and sealed)	Change of chemical purity during storage (in words) [7, 10]	Crystalline form after storage ([7]; 25 °C/60% RH, open, 6 months)	Crystalline form after storage [7, 11]	Time for which the crystalline form is stable (does not change) ([7]; 40 °C/75% RH, open and sealed)	Change of chemical purity during storage (in words) [7, 12]	Crystalline form after storage ([7]; 40 °C/75% RH, open, 6 months)	Crystalline form after storage [7, 13]	other results
[2H]C([2H])([2H])NC(=O)c1nnc(NC(=O)C2CC2)cc1Nc1cccc(-c2ncn(C)n2)c1OC [BMS-986165, 6-(cyclopropanecarboxamido)-4-((2-methoxy-3-(1-methyl-1H-1,2,4-triazol-3-yl)phenyl)amino)-N-(methyl-d3)pyridazine-3-carboxamide]	–	–	–	–	–	–	–	–	–	–	–	–	–	–	–	–	Therapeutic effect [1]: good therapeutic effects; Clinical effect [2]: positive clinical effects
[2H]C([2H])([2H])NC(=O)c1nnc(NC(=O)C2CC2)cc1Nc1cccc(-c2ncn(C)n2)c1OC [Form A, 6-(cyclopropanecarboxamido)-4-((2-methoxy-3-(1-methyl-1H-1,2,4-triazol-3-yl)phenyl)amino)-N-(methyl-d3)pyridazine-3-carboxamide, reference compound]	poor compressibility; also recorded: splintering	0.190 mg	0.260 mg	high adhesiveness	–	–	–	–	–	–	–	–	–	–	–	–	Adhesion quantity of Form A relative to that of Form CSII [4, 9]: 3.2 times
[2H]C([2H])([2H])NC(=O)c1nnc(NC(=O)C2CC2)cc1Nc1cccc(-c2ncn(C)n2)c1OC [Form CSII, 6-(cyclopropanecarboxamido)-4-((2-methoxy-3-(1-methyl-1H-1,2,4-triazol-3-yl)phenyl)amino)-N-(methyl-d3)pyridazine-3-carboxamide]	better compressibility compared with Form A	0.06 mg	0.06 mg	superior to that of Form A	6.08 mm	4.24 kgf	2.30 mm	1.89 MPa	at least 6 months	remains substantially unchanged	Form CSII	Form CSII	at least 6 months	remains substantially unchanged	Form CSII	Form CSII	Crystalline state after grinding [5]: does not change; also recorded: doesn't change; Crystalline state after tableting ([6]; tablets compressed under 5 kN, 10 kN and 20 kN): does not change
[2H]C([2H])([2H])NC(=O)c1nnc(NC(=O)C2CC2)cc1Nc1cccc(-c2ncn(C)n2)c1OC [Form CSI, 6-(cyclopropanecarboxamido)-4-((2-methoxy-3-(1-methyl-1H-1,2,4-triazol-3-yl)phenyl)amino)-N-(methyl-d3)pyridazine-3-carboxamide]	better compressibility compared with Form A	0.105 mg	0.130 mg	superior to that of Form A	6.06 mm	7.87 kgf	2.39 mm	3.39 MPa	at least 6 months	remains substantially unchanged	CSI	CSI	at least 6 months	remains substantially unchanged	CSI	CSI	Crystalline form of solid after stirring time 5 minutes ([8]; mixture of Form A and about 6 mg Form CSI suspended in 0.3 mL water/acetonitrile, water/methanol or water/acetone (samples 1-7), 5 minutes, XRPD): Form A +; Crystalline form of solid after stirring time 6 days ([8]; mixture of Form A and about 6 mg Form CSI suspended in 0.3 mL water/acetonitrile, water/methanol or water/acetone (samples 1-7), 6 days, XRPD): CSI; Stability relative to Form A (in words) ([8]; water/acetonitrile, water/methanol or water/acetone): better stability than Form A; Crystalline state after tableting ([6]; tablets compressed under 3 kN, 7 kN and 14 kN): does not change; also recorded: doesn't change; Chemical purity during storage [7, 10]: above 98.0%; Purity ([7]; 25 °C/60% RH, open, 6 months): 98.76%; Purity ([7]; 25 °C/60% RH, sealed, 6 months): 98.79%; Purity ([7]; 40 °C/75% RH, open, 6 months): 98.74%; Purity ([7]; 40 °C/75% RH, sealed, 6 months): 98.73%; Purity ([7]; initial): 98.13%
